Experimental data taken from patent publication US20090197938A1, “Polyphenol Type Compounds, Compositions Containing Same and Use Thereof for Preventing or Treating Diseases Involving Abnormal Cell Proliferation” (Fluofarma, priority 2005, published 2009).

Key:
cancer cells [1] = assay: Effect on cell proliferation at 24H and 48H; assay type: cell-based; settings: 24H and 48H (figure)
Description: (§1) FIG. 1 represents the effect of different concentrations of Castaline on apoptosis at 24H and 48 H and cell proliferation at 24H and 48H.
(§2) FIG. 2 represents the effect of different concentrations of Vescalene on apoptosis at 24H and 48 H and cell proliferation at 24H and 48H.
(§3) FIG. 3 represents the effect of different concentrations of Castalagine on apoptosis at 24H and 48H and cell proliferation at 24H and 48H.
(§4) FIG. 4 represents the effect of different concentrations of Acutissimine on apoptosis at 24H and 48H and cell proliferation at 24H and 48H.

cancer cells [2] = settings: cited from earlier work
cancer cells [3] = assay: Pro-apoptotic activity (apoptosis at 24H and 48H); assay type: cell-based; settings: different concentrations, 24H and 48H (figure)
Description: as §1, §2, §3, §4

DNA topoisomerase II = assay: Inhibition of DNA topoisomerase II (decatenation); assay type: biochemical
Description: Inhibition of DNA Topoisomerase II

Row | Inhibition of decatenation (%) (DNA topoisomerase II; compound concentration 1 μm) | Inhibition of decatenation (%) (DNA topoisomerase II; compound concentration 10 μm) | Substance | effect on cell proliferation with subtoxic doses (cancer cells [1]) | proliferation of cancer cells with subtoxic doses (background statement) (cancer cells [2]) | pro-apoptotic activity (cancer cells [3])
1 |  |  | Acutissimine A [reference compound] | increases cell proliferation | stimulate the proliferation of cancer cells | 
2 |  |  | Castalagine [reference compound] | increases cell proliferation | stimulate the proliferation of cancer cells | 
3 | 87.9 | 67.0 | Castaline | does not increase cell proliferation in a noteworthy manner |  | has a pro-apototic activity
4 | 78.8 | 97.3 | Vescalene | does not increase cell proliferation in a noteworthy manner |  | has a pro-apoptotic activity
5 |  |  | acutissimine B |  | stimulate the proliferation of cancer cells | 
6 |  |  | epiacutissamine A |  | stimulate the proliferation of cancer cells | 
7 |  |  | epiacutissamine B |  | stimulate the proliferation of cancer cells | 
8 |  |  | vescalagine |  | stimulate the proliferation of cancer cells | 

Row | Substance | Inhibition of decatenation (%) (DNA topoisomerase II; compound concentration 1 μm) | Inhibition of decatenation (%) (DNA topoisomerase II; compound concentration 10 μm) | effect on cell proliferation with subtoxic doses (cancer cells [1]) | proliferation of cancer cells with subtoxic doses (background statement) (cancer cells [2]) | pro-apoptotic activity (cancer cells [3])
9 | Vescaline | 95.5 | 100 |  |  | 
